# Measurements from PMC4835877, “HM71224, a novel Bruton’s tyrosine kinase inhibitor, suppresses B cell and monocyte activation and ameliorates arthritis in a mouse model: a potential drug for rheumatoid arthritis” (Arthritis Research & Therapy, 2016).
# Experiments:
# [1] = test system: DBA/1 J mice with collagen-induced arthritis; assay: Collagen-induced arthritis (CIA) model; type: in vivo, mouse; conditions: dexamethasone 0.2 mg/kg once a day
# Method: All animal experimental protocols were approved by the animal care and use committee of the Hanmi Research Center, and performed in accordance with approved guidelines. Male DBA/1 J mice (9 weeks old; n = 7 per group) were immunized with an emulsion of Complete Freund’s Adjuvant and bovine type II collagen (CII) (total volume, 0.07 mL) via intradermal injection at the base of the tail (day 0). Three weeks later, the mice received a booster immunization comprising bovine CII emulsified in Incomplete Freund’s Adjuvant. […] The arthritis score and body weight were measured three times per week for 2 weeks after administration of the drugs (Additional file 1: Figure S1). The arthritis score was determined by grading each paw from 0 to 4 based on erythema, swelling, and flexion of the joint and was expressed as the sum of the scores of all four paws. Serum levels of IL-6 were measured by Luminex analysis in a bead-based immunoassay (EMD Millipore Corporation). Serum levels of anti-CII and total IgG were measured by ELISA (Chondrex, Seattle, WA, USA; Bethyl Laboratories, Montgomery, TX, USA).
# Micro-CT of the hind limbs was performed using a Siemens Inveon Micro-CT/PET scanner (Siemens Medical Solutions, Knoxville, TN, USA).
# The hind legs of each mouse were fixed with 10 % formalin, decalcified in 5 % formic acid, and embedded in paraffin. Sections were then cut and stained with hematoxylin and eosin (H&E). The bone erosion index was scored from 0 to 4 according to the following criteria: 0 = no erosion, 1 = mild (focal subchondral erosion), 2 = moderate (multiple subchondral erosions), 3 = high (as above and focal erosion of talus), and 4 = maximum (multiple erosions of tarsal and metatarsal bones).
# Figure S1. Experiment design of collagen induced arthritis. Untreated DBA/1J mice (n=7) served as healthy controls (Ctrl). DBA/1J mice (n= 56) were immunized Day 0 and day 21. On day 10 after boosting (i.e. day 31), the induction of CIA was evaluated. […] Immunized mice (n=42) were divided into 6 groups (n=7 in each group). […] CIA, collagen induced arthritis.
# [2] = test system: CD3+ T cells; assay: T cell signaling, phospho-flow of CD3/CD28-activated PBMCs; type: cell-based, human; conditions: CD3- and CD28-conjugated beads
# Method: For phospho-flow, B cells were activated by crosslinking their BCRs with anti-human IgM antibodies (10 μg/mL; BD Biosciences) for 10 minutes at 37 °C. Cells were then fixed with 2 % paraformaldehyde at 37 °C for 12 minutes, permeabilized, and stained with anti-CD3-FITC (SK7; BD Biosciences), anti-CD20-PerCP-Cy5.5 (H1; BD Biosciences), anti-pBtk (Y223)-Alexa647 (N35-86; BD Biosciences), anti-pPLCγ2 (Y759)-Alexa647 (K86-689.37; BD Biosciences), anti-pSTAT1 (Y701)-Alexa647 (4a; BD Biosciences), anti-pSTAT3 (Y705)-Alexa647 (4/P-STAT3; BD Biosciences), anti-pSTAT5 (Y694)-Alexa647 (47; BD Biosciences), and anti-pERK1/2 (T202/204)-Alexa647 (20A; BD Biosciences) antibodies. The cells were then washed and analyzed on an LSR II flow cytometer (BD Biosciences). Data were analyzed using FlowJo software, version 8.8 (Treestar, Ashland, OR, USA).
# Figure S5. Effect of HM71224 on human T cell signaling. […] The expression level of p-STAT1, p-STAT3, p-STAT5, and p-ERK1/2 by CD3+ T cells was then measured by phospho-flow cytometry.
Structure (SMILES),"AS, arthritis score ([1]; D0)","Wt, weight ([1]; D0) [gram]","AS, arthritis score ([1]; D1)","AS, arthritis score ([1]; D4)","AS, arthritis score ([1]; D6)","AS, arthritis score ([1]; D8)","AS, arthritis score ([1]; D12)","AS, arthritis score ([1]; D13)","AS, arthritis score ([1]; D15)","T cell receptor signaling (p-STAT1, p-STAT3 and p-STAT5) [2]",p-ERK1/2 in CD3+ T cells [2]
"C[C@@H]1C[C@H]2[C@@H]3CCC4=CC(=O)C=C[C@]4(C)[C@@]3(F)[C@@H](O)C[C@]2(C)[C@@]1(O)C(=O)CO [Dexa, dexamethasone, reference compound]",1.1±0.5,22.9±0.4,0.9±0.5,0.4±0.2,0.3±0.2,0.3±0.2,0.3±0.2,0.4±0.3,0.3±0.2,,
"C=CC(=O)N1CCC[C@@H](n2nc(-c3ccc(Oc4ccccc4)cc3)c3c(N)ncnc32)C1 [PCI-32765, Ibrutinib]",,,,,,,,,,not affected,inhibited
C[C@@H]1CCN(C(=O)CC#N)C[C@@H]1N(C)c1ncnc2[nH]ccc12 [Tofacitinib],,,,,,,,,,significantly suppressed,
